In US10758534B2 (Vertex Pharmaceuticals Incorporated, priority 2014, dated 2020):

Biological target: T1, F508del (Homo sapiens, UniProt P13569, DEL508-508)
T1 construct: expressed in transfected cells
Test: Protocol 2: FRET membrane potential optical assay (VIPR), identification of correction compounds
Assay type: cell-based
Details: F508del CFTR modulator activity; compounds of Table 1; read-out: EC30
Outline: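 Correction of the F508del trafficking defect is scored as forskolin (10 μM)/genistein (20 μM)-stimulated Cl^− efflux in NIH3T3 mouse fibroblasts after a 16 hr, 37° C. compound exposure. Depolarization was followed optically using voltage-sensing FRET dyes.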

T1 sequence (P13569 with tags, fused parts or gaps DEL508-508): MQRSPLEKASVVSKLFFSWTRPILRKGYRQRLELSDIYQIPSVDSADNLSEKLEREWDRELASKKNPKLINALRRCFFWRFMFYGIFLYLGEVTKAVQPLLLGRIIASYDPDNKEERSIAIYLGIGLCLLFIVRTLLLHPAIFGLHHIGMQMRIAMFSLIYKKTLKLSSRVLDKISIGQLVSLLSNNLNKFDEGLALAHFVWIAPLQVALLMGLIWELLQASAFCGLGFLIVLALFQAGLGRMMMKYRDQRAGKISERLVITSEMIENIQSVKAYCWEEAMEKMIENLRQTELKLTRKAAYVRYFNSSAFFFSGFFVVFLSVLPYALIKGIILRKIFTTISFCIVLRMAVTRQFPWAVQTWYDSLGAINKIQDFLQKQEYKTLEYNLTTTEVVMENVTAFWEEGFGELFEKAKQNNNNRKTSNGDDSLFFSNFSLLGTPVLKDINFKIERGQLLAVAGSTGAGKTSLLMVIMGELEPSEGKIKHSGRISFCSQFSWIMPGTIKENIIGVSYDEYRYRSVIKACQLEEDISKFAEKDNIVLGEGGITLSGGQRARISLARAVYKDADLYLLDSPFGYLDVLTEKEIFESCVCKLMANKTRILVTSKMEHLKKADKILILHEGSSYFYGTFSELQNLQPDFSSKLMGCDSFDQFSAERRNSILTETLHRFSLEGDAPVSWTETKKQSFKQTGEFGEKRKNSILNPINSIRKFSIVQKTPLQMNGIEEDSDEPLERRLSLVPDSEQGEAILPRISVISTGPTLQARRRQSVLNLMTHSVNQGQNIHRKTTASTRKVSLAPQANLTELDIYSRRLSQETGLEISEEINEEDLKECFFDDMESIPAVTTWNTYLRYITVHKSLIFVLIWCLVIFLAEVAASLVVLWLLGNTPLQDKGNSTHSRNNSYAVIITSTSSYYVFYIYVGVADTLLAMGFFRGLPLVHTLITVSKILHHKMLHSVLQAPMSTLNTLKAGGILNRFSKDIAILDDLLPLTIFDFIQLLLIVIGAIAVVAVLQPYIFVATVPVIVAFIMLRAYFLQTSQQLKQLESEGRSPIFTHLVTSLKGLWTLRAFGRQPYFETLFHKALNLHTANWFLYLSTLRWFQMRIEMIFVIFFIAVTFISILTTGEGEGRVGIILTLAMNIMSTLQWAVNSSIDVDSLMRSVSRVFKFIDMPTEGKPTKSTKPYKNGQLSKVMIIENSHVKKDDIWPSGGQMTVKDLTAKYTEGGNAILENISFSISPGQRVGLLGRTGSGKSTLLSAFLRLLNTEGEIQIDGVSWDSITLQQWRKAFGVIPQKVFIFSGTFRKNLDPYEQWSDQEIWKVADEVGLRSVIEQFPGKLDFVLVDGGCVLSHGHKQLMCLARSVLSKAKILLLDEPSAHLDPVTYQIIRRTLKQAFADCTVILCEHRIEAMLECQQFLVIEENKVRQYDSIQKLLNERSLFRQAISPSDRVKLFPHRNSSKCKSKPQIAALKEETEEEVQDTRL

Row | SMILES | EC30 [nM]
1 | COC(=O)C1CCN(c2cccc(S(=O)(=O)NC(=O)c3cccnc3N3CC(C)CC3(C)C)n2)CC1 (stereo not shown) [Compound 2442, methyl 1-[6-[[2-(2,2,4-trimethylpyrrolidin-1-yl)pyridine-3-carbonyl]sulfamoyl]-2-pyridyl]piperidine-4-carboxylate] | 3000 to 10000
2 | COc1ccccc1-c1ccc(C(=O)NS(=O)(=O)c2ccc[nH]c2=O)c(N2C[C@@H](C)CC2(C)C)n1 [Compound 2485, 6-(2-methoxyphenyl)-N-[(2-oxo-1H-pyridin-3-yl)sulfonyl]-2-[(4S)-2,2,4-trimethylpyrrolidin-1-yl]pyridine-3-carboxamide] | < 3000
3 | CC1CN(c2ncccc2C(=O)NS(=O)(=O)c2cccc(N3CCc4ccccc43)n2)C(C)(C)C1 (stereo not shown) [Compound 2255, N-[(6-indolin-1-yl-2-pyridyl)sulfonyl]-2-(2,2,4-trimethylpyrrolidin-1-yl)pyridine-3-carboxamide] | < 3000
4 | COc1ccc(C)cc1-c1ccc(C(=O)NS(=O)(=O)c2cccnc2N)c(N2C[C@@H](C)CC2(C)C)n1 [Compound 2413, N-[(2-amino-3-pyridyl)sulfonyl]-6-(2-methoxy-5-methyl-phenyl)-2-[(4S)-2,2,4-trimethylpyrrolidin-1-yl]pyridine-3-carboxamide] | < 3000
5 | CC(C)COc1cc(F)cc(-c2ccc(C(=O)N(C)S(=O)(=O)c3cccc(N)n3)c(N3C[C@@H](C)CC3(C)C)n2)c1 [Compound 2258, N-[(6-amino-2-pyridyl)sulfonyl]-6-(3-fluoro-5-isobutoxy-phenyl)-N-methyl-2-[(4S)-2,2,4-trimethylpyrrolidin-1-yl]pyridine-3-carboxamide] | < 3000
6 | CC1CN(c2ncccc2C(=O)NS(=O)(=O)c2cccc(OCc3ccc(F)cc3F)n2)C(C)(C)C1 (stereo not shown) [Compound 2099, N—[[6-[(2,4-difluorophenyl)methoxy]-2-pyridyl]sulfonyl]-2-(2,2,4-trimethylpyrrolidin-1-yl)pyridine-3-carboxamide] | < 3000
7 | COc1ncc(-c2ccc(C(=O)NS(=O)(=O)c3cccnc3N)c(N3C[C@@H](C)CC3(C)C)n2)cc1F [Compound 2628, N-[(2-amino-3-pyridyl)sulfonyl]-6-(5-fluoro-6-methoxy-3-pyridyl)-2-[(4S)-2,2,4-trimethylpyrrolidin-1-yl]pyridine-3-carboxamide] | < 3000
8 | Cc1ccc(O)c(-c2ccc(C(=O)NS(=O)(=O)c3cccc(N)n3)c(N3C[C@@H](C)CC3(C)C)n2)c1 [Compound 2034, N-[(6-amino-2-pyridyl)sulfonyl]-6-(2-hydroxy-5-methyl-phenyl)-2-[(4S)-2,2,4-trimethylpyrrolidin-1-yl]pyridine-3-carboxamide] | < 3000
9 | C[C@@H]1CN(c2nc(C(C)(C)C)c([C@@H](O)[C@H](O)C3CCCC3)cc2C(=O)NS(=O)(=O)c2cccc(N)n2)C(C)(C)C1 (single isomer, unassigned) [Compound 2069] | < 3000
10 | C[C@@H]1CN(c2nc(-c3ccc4ccn(C)c4c3)ccc2C(=O)NS(=O)(=O)c2cccnc2N)C(C)(C)C1 [Compound 2401, N-[(2-amino-3-pyridyl)sulfonyl]-6-(I-methylindol-6-yl)-2-[(4S)-2,2,4-trimethylpyrrolidin-1-yl]pyridine-3-carboxamide] | < 3000
11 | COc1ccc(CCNc2cccc(S(=O)(=O)NC(=O)c3cccnc3N3CC(C)CC3(C)C)n2)cc1 (stereo not shown) [Compound 2072, N—[[6-[2-(4-methoxyphenyl)ethylamino]-2-pyridyl]sulfonyl]-2-(2,2,4-trimethylpyrrolidin-1-yl)pyridine-3-carboxamide] | 3000 to 10000
12 | CC1CN(c2ncc(-c3cccc4[nH]ncc34)cc2C(=O)NS(=O)(=O)c2cccc(N)n2)C(C)(C)C1 (stereo not shown) [Compound 2157, N-[(6-amino-2-pyridyl)sulfonyl]-5-(1H-indazol-4-yl)-2-(2,2,4-trimethylpyrrolidin-1-yl)pyridine-3-carboxamide] | > 10000
13 | CC(C)COc1cccc(-c2cnc(N3CC(C)CC3(C)C)c(C(=O)NS(=O)(=O)c3cccc(N)n3)c2)c1 (stereo not shown) [Compound 2089, N-[(6-amino-2-pyridyl)sulfonyl]-5-(3-isobutoxyphenyl)-2-(2,2,4-trimethylpyrrolidin-1-yl)pyridine-3-carboxamide] | < 3000
14 | Cc1cccc(-c2ccc(C(=O)NS(=O)(=O)c3cccc(N)n3)c(N3C[C@@H](C)CC3(C)C)n2)c1O [Compound 2203, N-[(6-amino-2-pyridyl)sulfonyl]-6-(2-hydroxy-3-methyl-phenyl)-2-[(4S)-2,2,4-trimethylpyrrolidin-1-yl]pyridine-3-carboxamide] | < 3000
15 | C[C@@H]1CN(c2nc(-n3cc(OCC(C)(C)C)cn3)ccc2C(=O)NS(=O)(=O)c2cccc(N)n2)C(C)(C)C1 [Compound 2603, N-[(6-amino-2-pyridyl)sulfonyl]-6-[4-(2,2-dimethylpropoxy)pyrazol-1-yl]-2-[(4S)-2,2,4-trimethylpyrrolidin-1-yl]pyridine-3-carboxamide] | < 3000
16 | CC(C)Oc1ccn(-c2ccc(C(=O)NS(=O)(=O)c3ccc[nH]c3=O)c(N3C[C@@H](C)CC3(C)C)n2)n1 [Compound 2360, 6-(3-isopropoxypyrazol-1-yl)-N-[(2-oxo-1H-pyridin-3-yl)sulfonyl]-2-[(4S)-2,2,4-trimethylpyrrolidin-1-yl]pyridine-3-carboxamide] | 3000 to 10000

Same assay, conditions: Table 3; compounds of Table 1 as modulators of CFTR activity; protocol not stated

Row | SMILES | EC30
17 | Cc1cc(C)c(CCn2nc(C(C)(C)C)cc2C(=O)NS(=O)(=O)c2cccc(N)c2)c(C)c1 [Compound 7, N-(3-aminophenyl)sulfonyl-5-tert-butyl-2-[2-(2,4,6-trimethylphenyl)ethyl]pyrazole-3-carboxamide] | +++ (“+++” means <3 uM)
18 | Cc1cc(C)c(Cn2c(C(=O)NS(=O)(=O)c3ccncc3)cc3c(F)cccc32)c(C)c1 [Compound 298, 4-fluoro-N-(4-pyridylsulfonyl)-1-[(2,4,6-trimethylphenyl)methyl]indole-2-carboxamide] | ++ (“++” means between 3 uM and 10 uM)
19 | CC(C)Oc1ccc(-c2ccc(C(=O)NS(=O)(=O)c3ccn[nH]3)c(N3CCC[C@@H](c4ccccc4)C3)n2)cn1 [Compound 776, 6-(6-isopropoxy-3-pyridyl)-2-[(3S)-3-phenyl-1-piperidyl]-N-(1H-pyrazol-5-ylsulfonyl)pyridine-3-carboxamide] | +++ (“+++” means <3 uM)
20 | Cc1cc(C)c(Oc2nc(-c3ccccc3)ccc2C(=O)NS(=O)(=O)c2ccn[nH]2)c(C)c1 [Compound 784, 6-phenyl-N-(1H-pyrazol-5-ylsulfonyl)-2-(2,4,6-trimethylphenoxy)pyridine-3-carboxamide] | +++ (“+++” means <3 uM)
21 | Cc1cc(C)c(Oc2nc3ccccc3cc2C(=O)NS(=O)(=O)c2cccc(N)n2)c(C)c1 [Compound 91, N-[(6-amino-2-pyridyl)sulfonyl]-2-(2,4,6-trimethylphenoxy)quinoline-3-carboxamide] | ++ (“++” means between 3 uM and 10 uM)
22 | Cc1cc(C)c(Cn2nc(C(C)(C)C)cc2C(=O)NS(=O)(=O)c2cccc(N)n2)c(C)c1 [Compound 173, N-[(6-amino-2-pyridyl)sulfonyl]-5-tert-butyl-2-[(2,4,6-trimethylphenyl)methyl]pyrazole-3-carboxamide] | ++ (“++” means between 3 uM and 10 uM)
23 | Cc1cc(C)c(Cn2nc(C(C)(C)C)cc2C(=O)C(C)S(=O)(=O)c2ccccc2)c(C)c1 (racemic) [Compound 139, 2-(benzenesulfonyl)-1-[5-tert-butyl-2-[(2,4,6-trimethylphenyl)methyl]pyrazol-3-yl]propan-1-one] | +++ (“+++” means <3 uM)
24 | CC(C)(C)c1ccc(C(=O)NS(=O)(=O)c2cccc(N)n2)c(-c2ccc(F)cc2)n1 [Compound 417, N-[(6-amino-2-pyridyl)sulfonyl]-6-tert-butyl-2-(4-fluorophenyl)pyridine-3-carboxamide] | ++ (“++” means between 3 uM and 10 uM)
25 | CC(C)Oc1ccc(-c2ccc(C(=O)NS(=O)(=O)c3cccc(N)n3)c(N3CCCCC3c3ccccc3)n2)cn1 (stereo not shown) [Compound 731, N-[(6-amino-2-pyridyl)sulfonyl]-6-(6-isopropoxy-3-pyridyl)-2-(2-phenyl-1-piperidyl)pyridine-3-carboxamide] | +++ (“+++” means <3 uM)
26 | Cc1cccc(C)c1Cn1nc(C2CC3CCC2C3)cc1C(=O)NS(=O)(=O)c1cccc(N)c1 (stereo not shown) [Compound 370, N-(3-aminophenyl)sulfonyl-2-[(2,6-dimethylphenyl)methyl]-5-norbornan-2-yl-pyrazole-3-carboxamide] | +++ (“+++” means <3 uM)
27 | Cc1ccc(Oc2nc(-c3ccccc3)ccc2C(=O)NS(=O)(=O)c2cccc(N)n2)c(C)c1 [Compound 340, N-[(6-amino-2-pyridyl)sulfonyl]-2-(2,4-dimethylphenoxy)-6-phenyl-pyridine-3-carboxamide] | +++ (“+++” means <3 uM)
28 | Cc1cccc(C)c1Cn1nc(C2CCCC2)cc1C(=O)NS(=O)(=O)c1cccc(N)c1 [Compound 105, N-(3-aminophenyl)sulfonyl-5-cyclopentyl-2-[(2,6-dimethylphenyl)methyl]pyrazole-3-carboxamide] | +++ (“+++” means <3 uM)
29 | Cc1cc(C)c(Oc2nc(-c3cccc(C)n3)ccc2C(=O)NS(=O)(=O)c2cccc(N)n2)c(C)c1 [Compound 730, N-[(6-amino-2-pyridyl)sulfonyl]-6-(6-methyl-2-pyridyl)-2-(2,4,6-trimethylphenoxy)pyridine-3-carboxamide] | +++ (“+++” means <3 uM)
30 | CC(C)COc1cc(F)cc(-c2ccc(C(=O)NS(=O)(=O)c3cccc(N)n3)c(OC3C(C)CCC3C)n2)c1 (stereo not shown) [Compound 416, N-[(6-amino-2-pyridyl)sulfonyl]-2-(2,5-dimethylcyclopentoxy)-6-(3-fluoro-5-isobutoxy-phenyl)pyridine-3-carboxamide] | +++ (“+++” means <3 uM)
31 | Cc1cc(C)c(Cn2c(C(=O)NS(=O)(=O)c3ccccc3)cc3cc(Cl)ccc32)c(C)c1 [Compound 137, N-(benzenesulfonyl)-5-chloro-1-[(2,4,6-trimethylphenyl)methyl]indole-2-carboxamide] | +++ (“+++” means <3 uM)
